Measured values published in publication PMC4503722, “Novel Phenotypic Outcomes Identified for a Public Collection of Approved Drugs from a Publicly Accessible Panel of Assays” (PLoS ONE, 2015).
Read-outs that look alike come from different tables or passages of the source.

Assays:
[1] = system: ECFC/ADSC co-culture cell nuclei number; conditions: for IC50: read-out: VEGF_ADSC\ECFC Angio Hoechst NucArea summarized IC50
[2] = system: endothelial tube formation in co-cultures of ECFCs and ADSCs treated with VEGF; test: cells; type: cell-based, human; conditions: for IC50: read-out: VEGF_ADSC\ECFC Angio CD31 TubeArea summarized IC50
HeLa cells = test: cells; type: cell-based;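 on Hela CellCycMod PI 4N summarized IC50: value tracks stimulation of 4N DNA content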
[3] = assay number 14, 2N, read-out: Hela CellCycMod PI 2N summarized IC50
[4] = assay number 16, 4N, read-out: Hela CellCycMod PI 4N summarized IC50
[5] = assay number 17, MI, read-out: Hela CellCycMod PI MI summarized IC50
[6] = assay number 18, cell number, read-out: Hela CellCycMod PI Cell Number summarized IC50
[7] = assay number 15, S phase, read-out: Hela CellCycMod PI S Phase summarized IC50

Row | SMILES | VEGF_ADSC\ECFC Angio Hoechst NucArea IC50/EC50 [1] [µM] | VEGF_ADSC\ECFC Angio CD31 TubeArea IC50/EC50 [2] [µM] | Hela CellCycMod PI 2N IC50/EC50 (HeLa cells; assay number 14, 2N) [µM] | Hela CellCycMod PI 4N IC50/EC50 (HeLa cells; assay number 16, 4N) [µM] | Hela CellCycMod PI MI IC50/EC50 (HeLa cells; assay number 17, MI) [µM] | Hela CellCycMod PI Cell Number IC50/EC50 (HeLa cells; assay number 18, cell number) [µM] | Hela CellCycMod PI S Phase IC50/EC50 (HeLa cells; assay number 15, S phase) [µM] | also measured
1 | O=C(O)CCCc1ccc(N(CCCl)CCCl)cc1 [NCGC00015199-20] |  |  |  |  |  |  |  | IC50/EC50, VEGF_ADSC\ECFC Angio Hoechst NucArea (assay number 3) [1]: > 10 µM; IC50/EC50, VEGF_ADSC\ECFC Angio CD31 TubeArea (assay number 2) [2]: 1.2446 µM; IC50/EC50, Hela CellCycMod PI 2N (assay number 14) (HeLa cells; 2N): > 10 µM; IC50/EC50, Hela CellCycMod PI 4N (assay number 16) (HeLa cells; 4N): > 10 µM; IC50/EC50, Hela CellCycMod PI Cell Number (assay number 18) (HeLa cells): > 10 µM; IC50/EC50, Hela CellCycMod PI MI (assay number 17) (HeLa cells; MI): > 10 µM; IC50/EC50, Hela CellCycMod PI S Phase (assay number 15) (HeLa cells): 2.1921 µM
2 | COc1ccc(Cc2nccc3cc(OC)c(OC)cc23)cc1OC [NCGC00015810-12] |  |  |  |  |  |  |  | IC50 [1]: > 10 µM; IC50 [2]: 7.8 µM; IC50 (HeLa cells; [3]): > 10 µM; IC50 (HeLa cells; [4]): > 10 µM; IC50 (HeLa cells; [5]): > 10 µM; IC50 (HeLa cells; [6]): > 10 µM
3 | COc1ccc2cc3[n+](cc2c1OC)CCc1cc2c(cc1-3)OCO2 [NCGC00016526-07] | > 10 | 2.6815 | > 10 | > 10 | > 10 | > 10 |  | 
4 | O=c1[nH]c(=O)n([C@H]2C[C@H](O)[C@@H](CO)O2)cc1Br [NCGC00090770-09] | > 10 | 3.8464 | > 10 | > 10 | > 10 | > 10 | > 10 | 
5 | CC(=O)Oc1ccccc1C(=O)Nc1ncc([N+](=O)[O-])s1 [NCGC00090774-05] | > 10 | 2.0612 | > 10 | > 10 | > 10 | > 10 | > 10 | 
6 | O=C1c2c(O)cccc2Cc2cccc(O)c21 [NCGC00091330-07] |  |  |  |  |  |  |  | IC50 [1]: > 10 µM; IC50 [2]: 0.604 µM; IC50 (HeLa cells; [3]): > 10 µM; IC50 (HeLa cells; [7]): > 10 µM; IC50 (HeLa cells; [4]): > 10 µM; IC50 (HeLa cells; [5]): > 10 µM; IC50 (HeLa cells; [6]): > 10 µM
7 | CN(C)/N=N/c1nc[nH]c1C(N)=O [NCGC00091861-07] |  |  |  |  |  |  |  | IC50/EC50, VEGF_ADSC\ECFC Angio Hoechst NucArea (assay number 3) [1]: > 10 µM; IC50/EC50, VEGF_ADSC\ECFC Angio CD31 TubeArea (assay number 2) [2]: 4.5862 µM; IC50/EC50, Hela CellCycMod PI 2N (assay number 14) (HeLa cells; 2N): > 10 µM; IC50/EC50, Hela CellCycMod PI 4N (assay number 16) (HeLa cells; 4N): > 10 µM; IC50/EC50, Hela CellCycMod PI Cell Number (assay number 18) (HeLa cells): > 10 µM; IC50/EC50, Hela CellCycMod PI MI (assay number 17) (HeLa cells; MI): > 10 µM; IC50/EC50, Hela CellCycMod PI S Phase (assay number 15) (HeLa cells): > 10 µM
8 | O=C(CCBr)N1CCN(C(=O)CCBr)CC1 [NCGC00095048-06] | > 10 | 1.3723 | > 10 | > 10 | > 10 | > 10 | > 10 | 
9 | C1CN(P2(N3CC3)=NP(N3CC3)(N3CC3)=NP(N3CC3)(N3CC3)=N2)CCO1 (centres unmarked) [NCGC00160420-02] | > 10 | 3.6152 | > 10 | > 10 | > 10 | > 10 | > 10 | 
10 | COc1ccc(/C=C/C(=O)c2ccc(OC)cc2OC)cc1 [NCGC00160442-03] | > 10 | 6.6604 | > 10 | > 10 | > 10 | 0.7082 |  | 
11 | COCCOC(=O)C1=C(C)NC(C)=C(C(=O)OC/C=C/c2ccccc2)C1c1cccc([N+](=O)[O-])c1 (centres unmarked) [NCGC00162150-04] | > 10 | 6.4204 | > 10 | > 10 | > 10 | > 10 | > 10 | 
12 | CCCCCCCCCCCC(=O)[O][Sn]([CH2]CCC)([CH2]CCC)[O]C(=O)CCCCCCCCCCC [NCGC00166115-02] |  |  |  |  |  |  |  | IC50 [1]: > 10 µM; IC50 [2]: 2.01 µM; IC50 (HeLa cells; [3]): > 10 µM; IC50 (HeLa cells; [7]): > 10 µM; IC50 (HeLa cells; [4]): > 10 µM; IC50 (HeLa cells; [5]): > 10 µM; IC50 (HeLa cells; [6]): > 10 µM
13 | C[C@]12CC[C@@H]3c4ccc(O)cc4CC[C@H]3[C@@H]1CC[C@@H]2OC(=O)CCC1CCCC1 [NCGC00166134-02] | > 10 | 6.3667 | > 10 | > 10 | > 10 | > 10 | > 10 | 
14 | CCCCCCC[N+](CC)(CC)CCCCc1ccc(Cl)cc1.Cc1ccc(S(=O)(=O)[O-])cc1 [NCGC00168464-04] |  |  |  |  |  |  |  | IC50/EC50, VEGF_ADSC\ECFC Angio Hoechst NucArea (assay number 3) [1]: > 10 µM; IC50/EC50, VEGF_ADSC\ECFC Angio CD31 TubeArea (assay number 2) [2]: 6.3375 µM; IC50/EC50, Hela CellCycMod PI 2N (assay number 14) (HeLa cells; 2N): > 10 µM; IC50/EC50, Hela CellCycMod PI 4N (assay number 16) (HeLa cells; 4N): > 10 µM; IC50/EC50, Hela CellCycMod PI Cell Number (assay number 18) (HeLa cells): > 10 µM; IC50/EC50, Hela CellCycMod PI MI (assay number 17) (HeLa cells; MI): > 10 µM
15 | CC(=O)N(O)CCCCCNC(=O)CCC(=O)N(O)CCCCCNC(=O)CCC(=O)N(O)CCCCCN [NCGC00178802-06] |  |  |  |  |  |  |  | IC50/EC50, VEGF_ADSC\ECFC Angio Hoechst NucArea (assay number 3) [1]: > 10 µM; IC50/EC50, VEGF_ADSC\ECFC Angio CD31 TubeArea (assay number 2) [2]: 4.5338 µM; IC50/EC50, Hela CellCycMod PI 2N (assay number 14) (HeLa cells; 2N): > 10 µM; IC50/EC50, Hela CellCycMod PI 4N (assay number 16) (HeLa cells; 4N): > 10 µM; IC50/EC50, Hela CellCycMod PI Cell Number (assay number 18) (HeLa cells): > 10 µM; IC50/EC50, Hela CellCycMod PI MI (assay number 17) (HeLa cells; MI): > 10 µM; IC50/EC50, Hela CellCycMod PI S Phase (assay number 15) (HeLa cells): > 10 µM
16 | C[C@@H]1C[C@H]2[C@@H]3CCC4=CC(=O)C=C[C@]4(C)[C@@]3(Cl)[C@@H](O)C[C@]2(C)[C@@]1(OC(=O)c1ccco1)C(=O)CCl [NCGC00179578-03] | > 10 | 4.9886 | > 10 | > 10 | > 10 |  | > 10 | 
17 | O=c1[nH]c(=O)n([C@H]2C[C@H](O)[C@@H](CO)O2)cc1I [NCGC00179673-03] |  |  |  |  |  |  |  | IC50 [1]: > 10 µM; IC50 [2]: 0.681 µM; IC50 (HeLa cells; [3]): > 10 µM; IC50 (HeLa cells; [7]): > 10 µM; IC50 (HeLa cells; [4]): > 10 µM; IC50 (HeLa cells; [5]): > 10 µM; IC50 (HeLa cells; [6]): > 10 µM
18 | Clc1ccc(Nc2nnc(Cc3ccncc3)c3ccccc23)cc1 [NCGC00181350-03] | > 10 | 0.1109 | > 10 | > 10 | > 10 | > 10 | > 10 | 
19 | Nc1nc(F)nc2c1ncn2[C@@H]1O[C@H](CO)[C@@H](O)[C@@H]1O [NCGC00182047-03] | > 10 | 8.4496 | > 10 | > 10 | > 10 | > 10 | > 10 | 
20 | CC(=O)Nc1ccn(C2COC(COC(=O)c3ccccc3)O2)c(=O)n1 (centres unmarked) [NCGC00183850-01] | > 10 | 2.3271 | > 10 | > 10 | > 10 | 0.2813 | 0.312 | 
21 | CC(C)OC(=O)OCOP(=O)(CO[C@H](C)Cn1cnc2c(N)ncnc21)OCOC(=O)OC(C)C.O=C(O)/C=C/C(=O)O [NCGC00183876-03] | > 10 | 3.8408 | > 10 | > 10 | > 10 | 0.2888 |  | 
22 | CCOC(=O)C1=C(C)NC(C)=C(C(=O)OCC)C1c1ccccc1/C=C/C(=O)OC(C)(C)C [NCGC00263529-01] |  |  |  |  |  |  |  | IC50/EC50, VEGF_ADSC\ECFC Angio Hoechst NucArea (assay number 3) [1]: > 10 µM; IC50/EC50, VEGF_ADSC\ECFC Angio CD31 TubeArea (assay number 2) [2]: > 10 µM
23 | CCOC(=O)[C@H](CCc1ccccc1)N[C@@H](C)C(=O)N1Cc2cc(OC)c(OC)cc2C[C@H]1C(=O)O.Cl [NCGC00263546-01] | > 10 | > 10 |  |  |  |  |  | 
24 | COc1cccc2c1C(=O)c1c(O)c3c(c(O)c1C2=O)C[C@@](O)(C(=O)CO)C[C@@H]3O[C@H]1C[C@H](N)[C@H](O)[C@H](C)O1.Cl [NCGC00263918-03] | 0.114 | 0.0429 |  |  |  |  |  | 
25 | CC(=O)O[C@H]1C[C@H](O[C@H]2[C@@H](O)C[C@H](O[C@@H]3[C@@H](O)C[C@H](O[C@H]4CC[C@@]5(C)[C@H](CC[C@@H]6[C@H]5C[C@@H](O)[C@]5(C)[C@@H](C7=CC(=O)OC7)CC[C@]65O)C4)O[C@@H]3C)O[C@@H]2C)O[C@H](C)[C@H]1O[C@@H]1O[C@H](CO)[C@@H](O)[C@H](O)[C@@H]1O [NCGC00344547-01] | 0.2792 | 0.0702 |  |  |  |  |  | 
